# Test results taken from PMC4433859 (Journal of immunology (Baltimore, Md. : 1950), 2015).
# Where no end group is shown, it is not given here.
# How the values were obtained:
# [1] = test system: HIV-specific CD8^+ T-cell responses; assay: IFNγ ELISpot with overlapping and optimal peptides; format: cell-based, human; details: IFNγ ELISpot responders among HLA-B*42:01^+ individuals, stratified for lack of HLA-B*07:02/39:10/42:02/81:01 co-expression (n=154)
# HLA-B*42:01 = HLA-B*42:01 (Homo sapiens, UniProt P01889, D138N/E176V/E187T/K202T/R180D); assay: biochemical; format: binding
Sequence,targeting frequency [1],Kd (HLA-B*42:01)
KVVPRRKAKIIKDYGKQM [Int-275],53%,–
IIKDYGKQM [Int-IM9],–,19 nM
